Data published in PMC11714206, “Massively Parallel Screening of Toll/Interleukin‐1 Receptor (TIR)‐Derived Peptides Reveals Multiple Toll‐Like Receptors (TLRs)‐Targeting Immunomodulatory Peptides” (Advanced Science, 2024).
Values belong to the sequence of their own block, whether it stands above or below them.

Molecular target: T1, MyD88^TIR (Homo sapiens, UniProt Q99836)
T1 construct: MyD88 (residues 148–296); 6xHis; made in house; host or cells: E. coli BL21 (DE3)
Assay: T‐Surf phage library (P8 and P3) selection against MyD88^TIR, four rounds, NGS read counts
Format: binding
Details: for P3_MyD88 Rank (after) / P3_MyD88 Rank (before): P3 library; for P8_MyD88 Rank (after) / P8_MyD88 Rank (before): P8 library; for Population: P8_MyD88 pool: P8 T-Surf phage library, 4th round of selection against MyD88 TIR, share of NGS reads
Method: T‐Surf libraries were screened against the immobilized TIR domains of two major human TLR adaptor proteins, MAL^TIR and MyD88^TIR, allowing cross‐species selection of TIR‐binding motifs with 190 946 TIR‐derived peptides in a single binding assay (Scheme 1). Enriched phage pools from the fourth round of selection were analyzed using NGS after barcoding the peptide‐coding regions of the phage pools.
Phage display screening was performed by coating two wells of a 96‐well plate (Maxisorp, Thermo Fisher Scientific) with 100 µL of 5 µg mL^−1 TIR domains overnight; then, the coated wells were blocked with 200 µL of blocking buffer (0.2% BSA in PBS) and set aside for 1 h at 4 °C with gentle shaking. Next, 100 µL of the phage library was added to the wells and incubated for 1 h at room temperature (RT; 20 – 22 °C) with gentle shaking. The plate was washed four times with PBS containing 0.5% Tween‐20; the bound phages were eluted by adding 100 µL of 100 mM HCl to each well. The elute was neutralized with 10 µL of 1.0 M Tris‐HCl (pH 11.0). E. coli TG1 cells were grown to the log phase (A600 = ≈0.6), and 1 mL of the culture was incubated with 100 µL of the eluted phages for 30 min at 37 °C, with shaking at 200 rpm. Next, 1 µL of M13KO7 helper phages was added, followed by incubation for 45 min at 37 °C, with shaking. Subsequently, the cells were transferred to 25 mL of 2× yeast extract tryptone/carbenicillin/kanamycin medium and incubated overnight at 37 °C with shaking at 200 rpm. The amplified phages were precipitated with 20% PEG‐8000/2.5 M NaCl to be used for the next round of selection.
The naïve T‐Surf libraries in P8 and P3 and the enriched phage pools after four rounds were barcoded for NGS as previously described.^[ [59] ^] Briefly, 5 µL of the phage pool was used as a template for 20 cycles of a 50 µL PCR reaction using […] each of forward and reverse barcoded primers and PrimeSTAR Max DNA Polymerase. The PCR products were purified using Expin Gel SV (GeneAll). The NGS samples were quantified using qPCR, following the qPCR Quantification Protocol Guide (KAPA Library Quantification kits for Illumina Sequencing Platform), and qualified using the TapeStation High Sensitivity D1000 ScreenTape (Agilent Technologies). The indexed libraries were further sequenced by Macrogen (Seoul, Republic of Korea) using the NovaSeq platform (Illumina) with 100 bp paired‐end reads. The reads were demultiplexed by barcodes and filtered for an average Phred quality score of at least 30, followed by trimming the flanking consensus sequences using Cutadapt (version 2.3). Peptide sequence populations were analyzed according to the read counts.

[1] = 4R selection against MyD88, rank after grouping
[2] = 4R selection against MyD88, rank before grouping
[3] = P3_MyD88: rank by count after grouping
[4] = P3_MyD88: rank by count before grouping
[5] = selection against MyD88, rank by count after grouping
[6] = selection against MyD88, rank by count before grouping
[7] = P8_MyD88: rank by NGS read count after grouping
[8] = P8_MyD88: rank by NGS read count before grouping
[9] = P8_MyD88: rank by count after grouping
[10] = P8_MyD88: rank by count before grouping
[11] = selection against MyD88, rank after grouping
[12] = selection against MyD88, rank before grouping
[13] = selection against MyD88 TIR, rank by count after grouping
[14] = selection against MyD88 TIR, rank by count before grouping

T1 sequence (Q99836 148-296): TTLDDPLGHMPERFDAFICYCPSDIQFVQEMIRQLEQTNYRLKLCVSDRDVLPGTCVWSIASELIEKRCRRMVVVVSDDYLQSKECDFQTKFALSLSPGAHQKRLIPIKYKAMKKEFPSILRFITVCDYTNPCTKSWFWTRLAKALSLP

Rank (after) [7]: 889
Rank (before) [8]: 2308
Sequence: GLSWGPYEWWIDLYDA

Rank (after) [7]: 922
Rank (before) [8]: 2287
Sequence: GLSWVRMNGGWACMM

Rank (after) [3]: 439
Rank (before) [4]: 1851
Sequence: GLYDELFMTETDERKR

Rank (after) [3]: 437
Rank (before) [4]: 1875
Sequence: GNDVLGRKGLRVGSKD

P3_MyD88 Rank (after) [1]: 603
P3_MyD88 Rank (before) [2]: 1852
Sequence: GRYDELFMTETDERKC

P3_MyD88 Rank (after) [11]: 521
P3_MyD88 Rank (before) [12]: 1877
Sequence: GWIREHLWPLLKQRMT

P3_MyD88 Rank (after) [13]: 194
P3_MyD88 Rank (before) [14]: 2773
Sequence: HLLKEFYKKQITAFKD

P3_MyD88 Rank (after) [1]: 594
P3_MyD88 Rank (before) [2]: 2769
Sequence: HLLREFDKKLITAFQD

Rank (after) [3]: 387
Rank (before) [4]: 2800
Sequence: HLRKEFDKRLITSFKD

P3_MyD88 Rank (after) [5]: 679
P3_MyD88 Rank (before) [6]: 2807
Sequence: HQLSVDIQGYALKAGV

P3_MyD88 Rank (after) [11]: 551
P3_MyD88 Rank (before) [12]: 2827
Sequence: HSEWACHELYFSHFWP

P8_MyD88 Rank (after) [1]: 581
P8_MyD88 Rank (before) [2]: 3518
Sequence: HWIDWVWDYLLPNLEGPAG

Rank (after) [7]: 885
Rank (before) [8]: 3614
Sequence: IAADHLSYLGRLLLSR

P8_MyD88 Rank (after) [1]: 597
P8_MyD88 Rank (before) [2]: 3635
Sequence: IDDDHLTYLVRLLLS

P8_MyD88 Rank (after) [11]: 539
P8_MyD88 Rank (before) [12]: 3634
Sequence: IDDDHLTYLVRLLLSLL

P8_MyD88 Rank (after) [5]: 761
P8_MyD88 Rank (before) [6]: 3637
Sequence: IDDDHLTYLVRLLQIA

Rank (after) [7]: 895
Rank (before) [8]: 3629
Sequence: IDDDHLTYLVRLLYSLHVTE

P8_MyD88 Rank (after) [1]: 639
P8_MyD88 Rank (before) [2]: 3622
Sequence: IDDDHLYAALVQAGIL

Rank (after) [7]: 975
Rank (before) [8]: 3651
Sequence: IDDHHLTFLVSLLLSL

Further lines, the sequence ahead of its results:

Sequence: GFREGLWRLLELSKK
P3_MyD88 Rank (after) [1]: 669
P3_MyD88 Rank (before) [2]: 1819

Sequence: GIFREGLWRLLELSKK
Rank (after) [3]: 105
Rank (before) [4]: 919

Sequence: GLSWGPYEWCRGLYDA
P8_MyD88 Rank (after) [5]: 770
P8_MyD88 Rank (before) [6]: 2294

Sequence: GPQELEWCYERLVTKF
P8_MyD88 Rank (after) [1]: 604
P8_MyD88 Rank (before) [2]: 2278

Sequence: GRYEELFMTETDERLP
P3_MyD88 Rank (after) [5]: 735
P3_MyD88 Rank (before) [6]: 1853

Sequence: GSFREILLRLLDLSKK
P3_MyD88 Rank (after) [1]: 671
P3_MyD88 Rank (before) [2]: 1858

Sequence: GSFRESLWRLLELSKK
Rank (after) [3]: 465
Rank (before) [4]: 1859

Sequence: GTFIDYLYHRLMEEGI
Rank (after) [9]: 107
Rank (before) [10]: 113
Population: 0.02%

Sequence: GWAWDYLLPNLEGPAG
P8_MyD88 Rank (after) [5]: 703
P8_MyD88 Rank (before) [6]: 2275

Sequence: HFAFSSWALDELANIL
P8_MyD88 Rank (after) [13]: 282
P8_MyD88 Rank (before) [14]: 612

Sequence: HFETTEGNFYKFFLFF
Rank (after) [9]: 165
Rank (before) [10]: 187
Population: 0.00694%

Sequence: HLIQQGIELHLHQLHL
Rank (after) [7]: 941
Rank (before) [8]: 3556

Sequence: HLLKEFDKKLIPRLK
P3_MyD88 Rank (after) [5]: 685
P3_MyD88 Rank (before) [6]: 2792

Sequence: HPWRNTLTAAANLNGR
P3_MyD88 Rank (after) [11]: 546
P3_MyD88 Rank (before) [12]: 2804

Sequence: HWIDWEYFVALKIIL
Rank (after) [9]: 427
Rank (before) [10]: 1236

Sequence: HWIEWEYFVGIEEHIK
Rank (after) [9]: 397
Rank (before) [10]: 3541

Sequence: HYTDSYFALHELALLL
Rank (after) [9]: 128
Rank (before) [10]: 138
Population: 0.0119%

Sequence: IDDDHLTYLVRLIEAL
Rank (after) [9]: 473
Rank (before) [10]: 3638

Sequence: IDDDHLTYLVRLLYSL
P8_MyD88 Rank (after) [1]: 607
P8_MyD88 Rank (before) [2]: 3631

Sequence: IDDDHLTYLVRLLYSLHVT
P8_MyD88 Rank (after) [1]: 669
P8_MyD88 Rank (before) [2]: 3630

Sequence: IDDEHLTYLGRLLLSR
P8_MyD88 Rank (after) [1]: 580
P8_MyD88 Rank (before) [2]: 3649
